Experimental data as given in US20160359116A1, “Organic Semiconductor Formulations” (SMARTKEM LIMITED, priority 2012, published 2016).

Experiment: Solubility of the OSC small molecule and binder in aromatic hydrocarbon and further solvents
Assay type: physicochemical
Text: The aromatic hydrocarbon solvent of the multi-solvent formulation is capable of dissolving at least 0.5% by weight of the polycrystalline small molecule of the present invention, more preferably greater than 1%.
The further (subsidiary) solvent(s) are preferably less solubilising of the polycrystalline small molecule and typically dissolve less than 0.2% by weight of the small molecule OSC, more preferably less than 0.1% by weight, more preferably less than 0.05% by weight.
Preferably, the semiconducting binder of the invention is essentially insoluble in the further solvent.

## CC[Si](C#Cc1c2cc3c(C)ccc(C)c3cc2c(C#C[Si](CC)(CC)CC)c2cc3c(C)ccc(C)c3cc12)(CC)CC [1,4,8,11-tetramethyl, 6,13-bis-(triethylsilylethynyl)pentacene]
In 2-Bromomesitylene
  Solubility: 1.4% w/v
In Bromobenzene
  Solubility: 3.5% w/v
In Cyclohexane
  Solubility: <0.1%
In Mesitylene
  Solubility: ~1% w/v
In Methyl ethyl ketone (MEK)
  Solubility: Insol.
In Propan-2-ol
  Solubility: Insol.
In Tetralin
  Solubility: 0.6% w/v
In n-Heptane
  Solubility: <0.1%
In n-Octane
  Solubility: <0.1%
